Laboratory results reported in PubChem BioAssay (NCI).
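How tested: cells in 96-well plates exposed to compound for 48 hours at five concentrations. TGI: total growth inhibition.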

Columns and labels:
Test in all cases: NCI tumour cell line growth inhibition, 48 h
LOX IMVI melanoma = test system: LOX IMVI melanoma
M19-MEL melanoma = test system: M19-MEL melanoma
A549 NSCLC = test system: A549 NSCLC
HL-60(TB) leukemia = test system: HL-60(TB) leukemia
RXF-631 renal = test system: RXF-631 renal
SK-MEL-28 melanoma = test system: SK-MEL-28 melanoma
NCI-H522 lung = test system: NCI-H522 lung
HOP-62 NSCLC = test system: HOP-62 NSCLC
OVCAR-4 ovarian = test system: OVCAR-4 ovarian
OVCAR-8 ovarian = test system: OVCAR-8 ovarian
U251 CNS = test system: U251 CNS
KM20L2 colon = test system: KM20L2 colon
NCI-H460 lung = test system: NCI-H460 lung
SN12C renal = test system: SN12C renal
SR leukemia = test system: SR leukemia
SNB-19 CNS = test system: SNB-19 CNS
SF-539 CNS = test system: SF-539 CNS
UACC-62 melanoma = test system: UACC-62 melanoma
SNB-78 CNS = test system: SNB-78 CNS
SK-MEL-2 melanoma = test system: SK-MEL-2 melanoma
SK-OV-3 ovarian = test system: SK-OV-3 ovarian
UO-31 renal = test system: UO-31 renal
HCT-15 colon = test system: HCT-15 colon
DMS 273 small cell lung = test system: DMS 273 small cell lung
KM12 colon = test system: KM12 colon
NCI-H23 lung = test system: NCI-H23 lung
DLD-1 colon = test system: DLD-1 colon
786-0 renal = test system: 786-0 renal
RPMI-8226 leukemia = test system: RPMI-8226 leukemia
HCT-116 colon = test system: HCT-116 colon
M14 melanoma = test system: M14 melanoma
OVCAR-3 ovarian = test system: OVCAR-3 ovarian
COLO 205 colon = test system: COLO 205 colon
CAKI-1 renal = test system: CAKI-1 renal
HOP-92 NSCLC = test system: HOP-92 NSCLC
NCI-H226 lung = test system: NCI-H226 lung
SF-295 CNS = test system: SF-295 CNS
UACC-257 melanoma = test system: UACC-257 melanoma
K-562 leukemia = test system: K-562 leukemia
MALME-3M melanoma = test system: MALME-3M melanoma
OVCAR-5 ovarian = test system: OVCAR-5 ovarian
HCC-2998 colon = test system: HCC-2998 colon
IGROV1 ovarian = test system: IGROV1 ovarian
SW-620 colon = test system: SW-620 colon
HT29 colon = test system: HT29 colon
TK-10 renal = test system: TK-10 renal
XF 498 CNS = test system: XF 498 CNS
SF-268 CNS = test system: SF-268 CNS
MOLT-4 leukemia = test system: MOLT-4 leukemia
DMS 114 small cell lung = test system: DMS 114 small cell lung
LXFL 529 NSCLC = test system: LXFL 529 NSCLC
HOP-18 NSCLC = test system: HOP-18 NSCLC
SNB-75 CNS = test system: SNB-75 CNS
SK-MEL-5 melanoma = test system: SK-MEL-5 melanoma
ACHN renal = test system: ACHN renal
EKVX NSCLC = test system: EKVX NSCLC
CCRF-CEM leukemia = test system: CCRF-CEM leukemia

O=C(COc1ccc(Cl)cc1)N1N=C(c2ccc([N+](=O)[O-])o2)CC1(O)c1ccccc1 (stereo not drawn)
TGI (LOX IMVI melanoma): 23.8 µM
TGI (M19-MEL melanoma): 10.1 µM
TGI (A549 NSCLC): 28.8 µM
TGI (HL-60(TB) leukemia): 12 µM
TGI (RXF-631 renal): 24.9 µM
TGI (SK-MEL-28 melanoma): 25.1 µM
TGI (NCI-H522 lung): 38.6 µM
TGI (HOP-62 NSCLC): 35.8 µM
TGI (OVCAR-4 ovarian): 26.7 µM
TGI (OVCAR-8 ovarian): 23.6 µM
TGI (U251 CNS): 15.5 µM
TGI (KM20L2 colon): 30.4 µM
TGI (NCI-H460 lung): 23.1 µM
TGI (SN12C renal): 15.8 µM
TGI (SR leukemia): 23.8 µM
TGI (SNB-19 CNS): 25.8 µM
TGI (SF-539 CNS): 26.9 µM
TGI (UACC-62 melanoma): 19.7 µM
TGI (SNB-78 CNS): 37.6 µM
TGI (SK-MEL-2 melanoma): 21 µM
TGI (SK-OV-3 ovarian): 47.3 µM
TGI (UO-31 renal): 23.6 µM
TGI (HCT-15 colon): 18.5 µM
TGI (DMS 273 small cell lung): 18.6 µM
TGI (KM12 colon): 27.7 µM
TGI (NCI-H23 lung): 6.73 µM
TGI (DLD-1 colon): > 100 µM
TGI (786-0 renal): 20.7 µM
TGI (RPMI-8226 leukemia): 18.3 µM
TGI (HCT-116 colon): 17.9 µM
TGI (M14 melanoma): 29.5 µM
TGI (OVCAR-3 ovarian): 17.2 µM
TGI (COLO 205 colon): 14.8 µM
TGI (CAKI-1 renal): > 100 µM
TGI (HOP-92 NSCLC): 37.7 µM
TGI (NCI-H226 lung): 55.6 µM
TGI (SF-295 CNS): 22.6 µM
TGI (UACC-257 melanoma): 15.6 µM
TGI (K-562 leukemia): 29.7 µM
TGI (MALME-3M melanoma): 23.4 µM
TGI (OVCAR-5 ovarian): 29.7 µM
TGI (HCC-2998 colon): 16.1 µM
TGI (IGROV1 ovarian): 42 µM
TGI (SW-620 colon): 21.5 µM
TGI (HT29 colon): 16.3 µM
TGI (TK-10 renal): 20.6 µM
TGI (XF 498 CNS): 22.3 µM
TGI (SF-268 CNS): 33.4 µM
TGI (MOLT-4 leukemia): 47.3 µM

COc1cc2ccnc3c2c(c1OC)CC1CC(O)C(OC)CC31 (stereo not drawn)
TGI (LOX IMVI melanoma): > 100 µM
TGI (M19-MEL melanoma): > 100 µM
TGI (A549 NSCLC): > 100 µM
TGI (HL-60(TB) leukemia): > 100 µM
TGI (SK-MEL-28 melanoma): 75.2 µM
TGI (NCI-H522 lung): > 100 µM
TGI (HOP-62 NSCLC): > 100 µM
TGI (OVCAR-4 ovarian): > 100 µM
TGI (OVCAR-8 ovarian): > 100 µM
TGI (U251 CNS): > 100 µM
TGI (KM20L2 colon): > 100 µM
TGI (NCI-H460 lung): > 100 µM
TGI (DMS 114 small cell lung): > 100 µM
TGI (SN12C renal): > 100 µM
TGI (SR leukemia): > 100 µM
TGI (SNB-19 CNS): > 100 µM
TGI (SF-539 CNS): 55.4 µM
TGI (LXFL 529 NSCLC): > 100 µM
TGI (UACC-62 melanoma): > 100 µM
TGI (SNB-78 CNS): > 100 µM
TGI (SK-MEL-2 melanoma): > 100 µM
TGI (SK-OV-3 ovarian): > 100 µM
TGI (UO-31 renal): > 100 µM
TGI (HCT-15 colon): > 100 µM
TGI (HOP-18 NSCLC): > 100 µM
TGI (DMS 273 small cell lung): > 100 µM
TGI (KM12 colon): > 100 µM
TGI (NCI-H23 lung): > 100 µM
TGI (DLD-1 colon): > 100 µM
TGI (786-0 renal): > 100 µM
TGI (SNB-75 CNS): > 100 µM
TGI (RPMI-8226 leukemia): > 100 µM
TGI (HCT-116 colon): > 100 µM
TGI (M14 melanoma): > 100 µM
TGI (OVCAR-3 ovarian): > 100 µM
TGI (COLO 205 colon): > 100 µM
TGI (HOP-92 NSCLC): 81.2 µM
TGI (NCI-H226 lung): > 100 µM
TGI (SF-295 CNS): > 100 µM
TGI (SK-MEL-5 melanoma): > 100 µM
TGI (UACC-257 melanoma): > 100 µM
TGI (K-562 leukemia): > 100 µM
TGI (MALME-3M melanoma): > 100 µM
TGI (ACHN renal): > 100 µM
TGI (EKVX NSCLC): 88.6 µM
TGI (OVCAR-5 ovarian): > 100 µM
TGI (HCC-2998 colon): > 100 µM
TGI (IGROV1 ovarian): > 100 µM
TGI (SW-620 colon): > 100 µM
TGI (HT29 colon): > 100 µM
TGI (TK-10 renal): > 100 µM
TGI (CCRF-CEM leukemia): > 100 µM
TGI (XF 498 CNS): > 100 µM
TGI (MOLT-4 leukemia): > 100 µM
